In patent publication US7138361B2, “Herbicidal heterocycles” (E. I. du Pont de Nemours and Company, priority 2000, dated 2006):

What was measured:
Assay type in all cases: in vivo
Sunflower [1] = assay: Test C preemergence; conditions: Rate 500 g/ha, visual evaluation after 12 to 14 days
[2] = test system: cocklebur (Xanthium strumarium); assay: Test B postemergence
Procedure, shortened: (§1)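 Greenhouse test: chemicals are formulated in a surfactant-containing non-phytotoxic solvent and applied either preemergence to planted seeds or postemergence to plants 2 to 18 cm tall. Response is rated visually versus controls after 13 to 15 days, 0 meaning no effect and 100 complete control.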

[3] = test system: lambsquarters (Chenopodium album); assay: Test B postemergence; conditions: Rate 125 g/ha, scale 0 to 100, 0 no effect, 100 complete control
Procedure, shortened: as §1

[4] = test system: crabgrass (Digitaria sanguinalis); assay: Test B postemergence; conditions: Rate 125 g/ha, scale 0 to 100, 0 no effect, 100 complete control
Procedure, shortened: as §1

wild oat (Avena fatua) = assay: Test B postemergence; conditions: Rate 125 g/ha, scale 0 to 100, 0 no effect, 100 complete control
Procedure, shortened: as §1

[5] = test system: cocklebur (Xanthium strumarium); assay: Test C preemergence
Procedure, shortened: (§2)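 Formulation: non-phytotoxic solvent mix incl. surfactant. Pre: applied right after planting. Post: 1–4-leaf seedlings. Read: visual 0–100, day 12–14, greenhouse.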

[6] = test system: woolly cupgrass (Eriochloa villosa); assay: Test C preemergence
Procedure, shortened: as §2

[7] = test system: velvetleaf (Abutilon theophrasti); assay: Test C preemergence
Procedure, shortened: as §2

Sunflower [8] = assay: Test C preemergence; conditions: Rate 125 g/ha; scale 0 to 100, 0 no effect, 100 complete control
[9] = test system: common ragweed (Ambrosia elatior); assay: Test C preemergence
Procedure, shortened: as §2

corn (Zea mays) = assay: Test C preemergence
Procedure, shortened: as §2

[10] = test system: lambsquarters (Chenopodium album); assay: Test C preemergence
Procedure, shortened: as §2

soybean (Glycine max) = assay: Test C preemergence
Procedure, shortened: as §2

Nightshade = assay: Test C preemergence
[11] = test system: Surinam grass (Brachiaria decumbens); assay: Test C preemergence
Procedure, shortened: as §2

[12] = test system: bermudagrass (Cynodon dactylon); assay: Test C preemergence
Procedure, shortened: as §2

kochia (Kochia scoparia) = assay: Test C preemergence
Procedure, shortened: as §2

[13] = test system: pigweed (Amaranthus retroflexus); assay: Test C preemergence
Procedure, shortened: as §2

[14] = test system: giant foxtail (Setaria faberii); assay: Test C preemergence
Procedure, shortened: as §2

[15] = test system: johnsongrass (Sorghum halepense); assay: Test C preemergence
Procedure, shortened: as §2

[16] = Rate 125 g/ha, scale 0 to 100, 0 no effect, 100 complete control
[17] = preemergence, Rate 62 g/ha, scale 0 to 100
[18] = preemergence, Rate 500 g/ha, visual evaluation after 12 to 14 days
[19] = preemergence, Rate 250 g/ha, scale 0 to 100, 0 no effect, 100 complete control

## CCC(C)Oc1cccc(N2CCC(n3ccc(C(C)(C)C)n3)C2=O)c1 (centres unmarked) [Compound 127]
Sunflower [1]
  Plant response rating (0 to 100), Sunflower: 0
[2]; [16]
  Plant response rating, Cocklebur: 0
[2]; Rate 500 g/ha, scale 0 to 100, 0 is no effect, 100 is complete control, 13 to 15 days
  Plant response rating, Cocklebur: 60
[3]
  Plant response rating, Lambsquarters: 30
[4]
  Plant response rating, Crabgrass: 0
Wild oat (Avena fatua)
  Plant response rating, Wild Oat: 0
[5]; [16]
  Plant response rating, Cocklebur: 0
[5]; [17]
  Plant response rating, Cocklebur: 0
[5]; [18]
  Plant response rating (0 to 100), Cocklebur: 20
[5]; [19]
  Plant response rating, Cocklebur: 0
[6]; [16]
  Plant response rating, Cupgrass, Woolly: 50
[6]; [17]
  Plant response rating, Cupgrass, Woolly: 0
[6]; [18]
  Plant response rating (0 to 100), Cupgrass, Woolly: 100
[6]; [19]
  Plant response rating, Cupgrass, Woolly: 90
[7]; [16]
  Plant response rating, Velvetleaf: 0
[7]; [17]
  Plant response rating, Velvetleaf: 0
[7]; [18]
  Plant response rating (0 to 100), Velvetleaf: 30
[7]; [19]
  Plant response rating, Velvetleaf: 10
Sunflower [8]
  Plant response rating, Sunflower: 0
[9]; [16]
  Plant response rating, Ragweed, Common: 0
[9]; [17]
  Plant response rating, Ragweed, Common: 0
[9]; [18]
  Plant response rating (0 to 100), Ragweed, Common: 10
[9]; [19]
  Plant response rating, Ragweed, Common: 10
Corn (Zea mays); [16]
  Plant response rating, Corn: 0
Corn (Zea mays); [17]
  Plant response rating, Corn: 0
Corn (Zea mays); [18]
  Plant response rating (0 to 100), Corn: 30
Corn (Zea mays); [19]
  Plant response rating, Corn: 30
[10]; [16]
  Plant response rating, Lambsquarters: 80
[10]; [17]
  Plant response rating, Lambsquarters: 20
[10]; [18]
  Plant response rating (0 to 100), Lambsquarters: 100
[10]; [19]
  Plant response rating, Lambsquarters: 100
Soybean (Glycine max); [16]
  Plant response rating, Soybean: 0
Soybean (Glycine max); [17]
  Plant response rating, Soybean: 0
Soybean (Glycine max); [18]
  Plant response rating (0 to 100), Soybean: 0
Soybean (Glycine max); [19]
  Plant response rating, Soybean: 0
Nightshade; Rate 62 g/ha, scale 0 to 100
  Plant response rating, Nightshade: 0
Nightshade; [16]
  Plant response rating, Nightshade: 0
Nightshade; Rate 250 g/ha, scale 0 to 100, 0 no effect, 100 complete control
  Plant response rating, Nightshade: 0
[11]; [16]
  Plant response rating, Surinam grass: 0
[11]; [17]
  Plant response rating, Surinam grass: 0
[11]; [18]
  Plant response rating (0 to 100), Surinam grass: 100
[11]; [19]
  Plant response rating, Surinam grass: 20
[12]; [16]
  Plant response rating, Bermudagrass: 100
[12]; [17]
  Plant response rating, Bermudagrass: 90
[12]; [18]
  Plant response rating (0 to 100 where 0 is no effect and 100 is complete control), Bermudagrass: 100
[12]; [19]
  Plant response rating, Bermudagrass: 100
Kochia (Kochia scoparia); [16]
  Plant response rating, Kochia: 0
Kochia (Kochia scoparia); [17]
  Plant response rating, Kochia: 0
Kochia (Kochia scoparia); [18]
  Plant response rating (0 to 100), Kochia: 0
Kochia (Kochia scoparia); [19]
  Plant response rating, Kochia: 0
[13]; [16]
  Plant response rating, Pigweed: 0
[13]; [17]
  Plant response rating, Pigweed: 0
[13]; [18]
  Plant response rating (0 to 100), Pigweed: 0
[13]; [19]
  Plant response rating, Pigweed: 0
[14]; [16]
  Plant response rating, Foxtail, Giant: 0
[14]; [17]
  Plant response rating, Foxtail, Giant: 0
[14]; [18]
  Plant response rating (0 to 100), Foxtail, Giant: 100
[14]; [19]
  Plant response rating, Foxtail, Giant: 100
[15]; [16]
  Plant response rating, Johnsongrass: 0
[15]; [17]
  Plant response rating, Johnsongrass: 0
[15]; [18]
  Plant response rating (0 to 100), Johnsongrass: 0
[15]; [19]
  Plant response rating, Johnsongrass: 0
